Assay results taken from US20240366565A1, “Use of Verteporfin to Modulate Wound Healing After an Ocular Surgical Procedure or Ocular Injury” (The Board of Trustees of the Leland Stanford Junior …, priority 2021, published 2024).

Experiments:
[1] = tested on: bleb survival after glaucoma filtration surgery; assay: Rabbit model of glaucoma filtration surgery; type: in vivo, New Zealand White rabbits; settings: subconjunctival injection into the bleb after surgery, various concentrations, versus BSS control eye
Protocol: FIGS. 5A-5B. Efficacy of verteporfin in reducing scarring and increasing bleb survival. The efficacy of verteporfin in reducing scarring and increasing bleb survival was evaluated in a rabbit model of glaucoma filtration surgery. Glaucoma filtration surgery was performed in both eyes of New Zealand White rabbits. In one eye, various concentrations of verteporfin or Mitomycin C was injected subconjunctivally into the bleb after surgery. In the contralateral eye, BSS was injected after surgery as a control. Bleb appearance and survival were evaluated postoperatively at least twice a week. Bleb survival was the primary endpoint. […] There were no post-surgical complications in all groups, including corneal edema, bleb leak, anterior chamber inflammation, iris involvement, cataract or infection (FIG. 5B).
The efficacy of verteporfin in reducing scarring and increasing bleb survival was evaluated in a rabbit model of glaucoma filtration surgery. Glaucoma filtration surgery was performed in both eyes of New Zealand White rabbits. In one eye, various concentrations of verteporfin or Mitomycin C was injected subconjunctivally into the bleb after surgery. In the contralateral eye, BSS was injected after surgery as a control. Bleb appearance and survival were evaluated postoperatively at least twice a week. Bleb survival was the primary endpoint.

[2] = tested on: α-smooth muscle actin (α-SMA, ACTA-2) expression in hMSCs; assay: qPCR of α-smooth muscle actin expression in TGFB-1 treated hMSCs; type: cell-based, human
Protocol: FIG. 1. Verteporfin reduces expression of α-smooth muscle actin in hMSCs. Human mesenchymal stem cells (hMSCs) were plated in culture. The next day, the following treatments were added in duplicate: 1 μg/mL Verteporfin, 10 μg/mL Verteporfin, 10 ng/ml transforming growth factor beta-1 (TGFB-1), 1 μg/mL Verteporfin+10 ng/mL TGFB-1, 10 μg/mL Verteporfin+10 ng/ml TGFB-1, Dimethyl sulfoxide (DMSO), and cells without treatment. After 24 hours, the medium was removed, the wells were washed with PBS and then the RNA of the cells were extracted using Trizol and a Quiagen kit. Quantitative polymerase chain reaction (qPCR) was performed. TGFB-1 activation leads to the differentiation of mesenchymal stem cells into myofibroblasts, inducing expression of α-smooth muscle actin (α-SMA) and the extracellular matrix proteins such as collagen which may lead to scarring.
Human mesenchymal stem cells (hMSCs) were plated in culture. The next day, the following treatments were added in duplicate: 1 μg/mL Verteporfin, 10 μg/mL Verteporfin, 10 ng/ml transforming growth factor beta-1 (TGFB-1), 1 μg/mL Verteporfin+10 ng/ml TGFB-1, 10 μg/mL Verteporfin+10 ng/ml TGFB-1, Dimethyl sulfoxide (DMSO), and cells without treatment. […] Quantitative polymerase chain reaction (qPCR) was performed.

[3] = tested on: ki67 (Mki67) expression in hMSCs; assay: qPCR of ki67 expression in hMSCs; type: cell-based, human; settings: Verteporfin 1 μg/mL and 10 μg/mL, 24 hours
Protocol: FIG. 3. […] The hMSCs were cultured on plates. The next day, the treatments were added in duplicate: Verteporfin 1 μg/mL, Verteporfin 10 μg/mL, DMSO, and cells without treatment. After 24 hours, the medium was removed, the wells were washed with PBS and then the RNA of the cells were extracted using Trizol and Quiagen kit. qPCR was performed.
The hMSCs were cultured on plates. The next day, the treatments were added in duplicate: Verteporfin 1 μg/mL, Verteporfin 10 μg/mL, DMSO, and cells without treatment. After 24 hours, the medium was removed, the wells were washed with PBS and then the RNA of the cells were extracted using Trizol and Quiagen kit. qPCR was performed.

[4] = tested on: corneal scarring after anterior lamellar keratectomy; assay: Rat model of corneal injury (anterior lamellar keratectomy); type: in vivo; settings: ALK cut depth around 50%, 10 μg/mL in Provisc gel subconjunctivally on Day 0, read at day 3, versus untreated eyes
Protocol: FIG. 6. Efficacy of verteporfin in reducing corneal scarring. Anterior lamellar keratectomy (ALK) with a cut depth of around 50% was performed in a rat model of corneal injury. 10 μg/mL verteporfin (in Provisc gel) was subconjunctivally injected after ALK on Day 0.
Anterior lamellar keratectomy (ALK) with a cut depth of around 50% was performed in a rat model of corneal injury. 10 μg/mL verteporfin (in Provisc gel) was subconjunctivally injected after ALK on Day 0.

[5] = tested on: hMSCs; assay: Live/dead cytotoxicity test in hMSCs; type: cell-based, human; settings: 1 μg/mL and 10 μg/mL, 24 hours
Protocol: FIG. 4. Verteporfin is not cytotoxic to hMSCs. The hMSCs were treated with verteporfin at concentrations of 1 μg/mL and 10 μg/mL for 24 hours. Cells were treated with 10% DMSO for 40 minutes. The next day, the live/dead solution was added to the cells.
The hMSCs were treated with verteporfin at concentrations of 1 μg/mL and 10 μg/mL for 24 hours. Cells were treated with 10% DMSO for 40 minutes. The next day, the live/dead solution was added to the cells.

[6] = tested on: alpha smooth muscle actin (ASMA) in hMSCs; assay: Immunostaining of alpha smooth muscle actin in hMSCs; type: cell-based, human; settings: 10 ng/ml TGFB-1 with or without verteporfin, 24 hours
Protocol: FIG. 2. Results of immunostaining alpha smooth muscle actin in hMSCs. The hMSCs, were treated with 10 ng/ml TGFB-1 with or without verteporfin and DMSO for 24 hours. The next day, the cells were fixed and stained for alpha smooth muscle actin (ASMA).
The hMSCs, treated with 10 ng/ml TGFB-1 with or without verteporfin and DMSO for 24 hours, were fixed and stained for alpha smooth muscle actin (ASMA) the next day.

[7] = tested on: skin wounds; settings: cited from earlier work

Substance	bleb survival [1]	expression of alpha-SMA (qPCR) ([2]; 10 ng/ml TGFB-1 + 1 or 10 μg/mL Verteporfin, 24 hours)	expression of ki67 (Mki67), marker of cell proliferation (qPCR) [3]	corneal scarring [4]	cytotoxicity (live/dead) [5]	expression of ASMA (immunostaining) [6]	scar formation in skin wounds ([7]; mice, injection into skin wounds)	side effects on dosing in the skin ([7]; previous animal studies)	expression of alpha-SMA (ACTA-2) (qPCR) ([2]; 10 ng/ml TGFB-1 alone, after 24 hours)
Verteporfin	trend towards increased survival	statistically reduced the expression of alpha-SMA in a dose dependent manner	did not increase the expression of ki67	reduced corneal scarring	not cytotoxic	reduces the expression of ASMA	prevented scar formation	minimal side effects	
transforming growth factor beta-1 [TGFB-1]									statistically increased the expression of alpha-SMA
